Molecular target: T1, sGC (Rattus norvegicus, UniProt P20595)
T1 construct: expressed in transfected cells; host or cells: CHO reporter cell
Assay: Action at a recombinant guanylate cyclase reporter cell line (CHO reporter cell)
Assay type: cell-based
Settings: CHO reporter cell in vitro
Procedure: The cellular action of the compounds according to the invention is determined at a recombinant guanylate cyclase reporter cell line, as described in F. Wunder et al., Anal. Biochem. 339, 104-112 (2005).

T1 sequence (P19686 whole entry partner): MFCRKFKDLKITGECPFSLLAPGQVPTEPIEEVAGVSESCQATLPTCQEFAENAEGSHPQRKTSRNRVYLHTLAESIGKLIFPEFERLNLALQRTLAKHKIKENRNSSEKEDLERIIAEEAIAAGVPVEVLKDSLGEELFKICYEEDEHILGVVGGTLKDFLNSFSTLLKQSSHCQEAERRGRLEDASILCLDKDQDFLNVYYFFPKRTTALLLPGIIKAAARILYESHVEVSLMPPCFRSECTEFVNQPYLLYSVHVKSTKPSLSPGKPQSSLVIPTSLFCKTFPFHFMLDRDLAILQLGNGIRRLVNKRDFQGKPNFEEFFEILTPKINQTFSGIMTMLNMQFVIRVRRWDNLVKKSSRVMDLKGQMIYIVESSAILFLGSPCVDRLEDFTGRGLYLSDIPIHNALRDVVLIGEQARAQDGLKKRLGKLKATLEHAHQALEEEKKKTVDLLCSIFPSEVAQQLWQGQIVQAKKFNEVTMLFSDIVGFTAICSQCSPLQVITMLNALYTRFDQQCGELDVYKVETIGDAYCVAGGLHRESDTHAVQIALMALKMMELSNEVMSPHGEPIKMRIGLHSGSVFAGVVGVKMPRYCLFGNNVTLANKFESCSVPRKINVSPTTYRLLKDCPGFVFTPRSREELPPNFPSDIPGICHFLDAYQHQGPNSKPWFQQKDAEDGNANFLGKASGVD
T1 sequence (P20595 whole entry): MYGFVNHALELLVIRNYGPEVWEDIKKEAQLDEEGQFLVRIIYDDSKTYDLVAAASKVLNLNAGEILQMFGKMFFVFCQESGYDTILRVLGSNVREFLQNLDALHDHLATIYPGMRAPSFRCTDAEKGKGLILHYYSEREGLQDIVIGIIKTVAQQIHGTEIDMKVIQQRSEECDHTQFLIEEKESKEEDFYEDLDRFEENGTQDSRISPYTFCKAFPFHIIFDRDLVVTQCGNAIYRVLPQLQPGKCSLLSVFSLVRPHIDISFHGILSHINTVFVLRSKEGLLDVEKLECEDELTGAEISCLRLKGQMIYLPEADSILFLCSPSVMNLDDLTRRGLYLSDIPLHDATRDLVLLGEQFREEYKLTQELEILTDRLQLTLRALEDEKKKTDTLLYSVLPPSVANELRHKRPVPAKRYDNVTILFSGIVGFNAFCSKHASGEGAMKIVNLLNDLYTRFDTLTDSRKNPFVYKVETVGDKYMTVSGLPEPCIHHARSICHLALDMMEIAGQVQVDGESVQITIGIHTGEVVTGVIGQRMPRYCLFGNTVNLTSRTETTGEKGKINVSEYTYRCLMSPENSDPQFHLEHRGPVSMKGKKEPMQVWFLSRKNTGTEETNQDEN

MEC (minimum effective concentration), sGC-activating activity in the CHO reporter cell [nM]	Compound
0.3	C[C@H]([C@H](C(=O)Nc1cc(C(OC2CC2)C2(C(=O)O)CC2)ccc1Cl)c1ccc(Cl)cc1)C(F)(F)F (single isomer, unassigned) [Example 113]
3	CC(C(C(=O)Nc1cccc(CC2(C(=O)O)CC2)c1)c1ccc(C(F)(F)F)cc1)C(F)(F)F (single isomer, unassigned) [Example 80, 1-[3-({4,4,4-Trifluoro-3-methyl-2-[4-(trifluoromethyl)phenyl]butanoyl}amino)benzyl]cyclo-propanecarboxylic acid]
3	O=C(Nc1cc(CC2(C(=O)O)CC2)ccc1F)[C@H](c1ccc(Cl)cc1)C1CCCC1(F)F (single isomer, unassigned; (+)) [Example 67]
10	O=C(Nc1cc(CC2(C(=O)O)CC2)ccc1F)C(c1ccc(Cl)cc1)C1CCC(F)(F)C1 (stereo not shown) [Example 34, 1-(3-{[(4-chlorophenyl)(3,3-difluorocyclopentyl)-acetyl]amino}-4-fluorobenzyl)cyclopropane-carboxylic acid]
3	C[C@H]([C@H](C(=O)Nc1cc(C(OC2CC2)C2(C(=O)O)CC2)ccc1Cl)c1ccc(Cl)cc1)C(F)(F)F (single isomer, unassigned) [Example 114]
1	C[C@H]([C@H](C(=O)Nc1cc(CC2(C(=O)O)CC2)ccc1Cl)c1ccc(C(F)(F)F)cc1)C(F)(F)F [Example 41, 1-[4-chloro-3-({(2S,3R)-4,4,4-trifluoro-3-methyl-2-[4-(trifluoromethyl)phenyl]butanoyl}amino)-benzyl]cyclopropanecarboxylic acid]
10	O=C(Nc1cccc(CC2(C(=O)O)CC2)c1)C(c1ccc(C(F)(F)F)cc1)C1CCCC1 (racemic) [Example 53, (+/−)-1-[3-({Cyclopentyl[4-(trifluoromethyl)phenyl]acetyl}amino)benzyl]cyclopropanecarboxylic acid]
0.3	CCc1ccc([C@@H](C(=O)Nc2cc(CC3(C(=O)O)CC3)ccc2F)[C@@H](C)C(F)(F)F)cc1 [Example 25, (+)-1-(3-{[(2S,3R)-2-(4-ethylphenyl)-4,4,4-tri-fluoro-3-methylbutanoyl]amino}-4-fluorobenzyl)-cyclopropanecarboxylic acid]
10	O=C(Nc1cc(CC2(C(=O)O)CC2)ccc1Cl)C(c1ccc(Cl)cc1)C1CCC(F)(F)C1 (stereo not shown) [Example 35, 1-(3-{[(4-chlorophenyl)(3,3-difluorocyclopentyl)-acetyl]amino}-4-chlorobenzyl)cyclopropane-carboxylic acid]
20	C[C@H]([C@H](C(=O)Nc1cc(C(O)C2(C(=O)O)CC2)ccc1Cl)c1ccc(Cl)cc1)C(F)(F)F (single isomer, unassigned) [Example 104]
1	O=C(Nc1cc(CC2(C(=O)O)CC2)ccc1F)C(c1ccc(Cl)cc1F)C1CCCC1 (racemic) [Example 11, (+/−)-1-(3-{[(4-chloro-2-fluorophenyl)(cyclo-pentyl)acetyl]amino}-4-fluorobenzyl)-cyclopropanecarboxylic acid]
60	C[C@H]([C@H](C(=O)Nc1cc(C(O)C2(C(=O)O)CC2)ccc1Cl)c1ccc(Cl)cc1)C(F)(F)F (single isomer, unassigned) [Example 103]
0.3	C=Cc1ccc([C@@H](C(=O)Nc2cc(CC3(C(=O)O)CC3)ccc2F)[C@@H](C)C(F)(F)F)cc1 [Example 63, (+)-1-(4-Fluoro-3-{[(2S,3R)-4,4,4-trifluoro-3-methyl-2-(4-vinylphenyl)butanoyl]amino}benzyl)-cyclopropanecarboxylic acid]

Source: patent US9018258B2, “Substituted 1-benzylcycloalkylcarboxylic acids and the use thereof” (Bayer Intellectual Property GmbH, priority 2010, dated 2015)
